The record followed here is patent publication US8785488B2 (Exelixis Patent Company LLC, priority 2009, dated 2014).

Read-outs that look alike come from different tables or passages of the source. Where only a bound is given, the exact number is not on record here.

By EC50 is commonly meant the concentration giving half of the maximal effect.

The experiment concerns the target T1, human TGR5 (h-TGR5) (Homo sapiens, UniProt Q8TDU6).
T1 construct: expressed in transfected cells
T1 sequence (Q8TDU6 1-330): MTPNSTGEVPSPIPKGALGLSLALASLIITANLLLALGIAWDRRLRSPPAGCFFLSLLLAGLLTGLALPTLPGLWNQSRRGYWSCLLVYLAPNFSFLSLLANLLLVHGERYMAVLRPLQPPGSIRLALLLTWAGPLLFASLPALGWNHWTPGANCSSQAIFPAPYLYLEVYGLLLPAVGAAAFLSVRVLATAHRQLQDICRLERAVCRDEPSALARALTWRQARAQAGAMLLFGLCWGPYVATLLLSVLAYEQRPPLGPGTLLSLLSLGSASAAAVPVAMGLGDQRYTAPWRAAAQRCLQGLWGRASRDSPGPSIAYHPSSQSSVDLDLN
Nature of the experiment: TGR5/CRE-Luciferiase Assay (HEK 293 hTGR5/CRE-Luc cells). In kind it is cell-based. The method, boiled down:
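HEK293 cells stably carrying hTGR5 and a CRE-luciferase reporter were exposed to serially diluted compounds (diluted in DMEM with 5% DMSO) for 6 h. Cells were then lysed in luciferase buffer, luminescence was read, and EC50 values were derived from dose-response curves.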

[1] abbreviates: h-TGR5 CRE-Luc EC50, Table 1, read-out: CRE-Luc (EC50).
Where [2] appears, read: HEK 293 hTGR5/CRE-Luc cells, 6 hours incubation, luciferase activity, Table 2, read-out: h-TGR5CRE-Luc EC50 (CRE-Luc).

In the case of `CC(C)(O)COc1cc(CSc2ncc(C(C)(C)c3ccc(Cl)c(Cl)c3)n2-c2ccc(F)cc2)ccc1F` [1-({5-[({5-[1-(3,4-dichlorophenyl)-1-methylethyl]-1-(4-fluorophenyl)-1H-imidazol-2-yl}thio)methyl]-2-fluorophenyl}oxy)-2-methylpropan-2-ol], under setting [1], the EC50 lay within 100 to 1000 nM.

Turning to `COc1ccc(C(C)(C)c2cnc(C(=O)NCc3ccc(Cl)c(F)c3)n2-c2ccc(F)cc2)cc1OC` [5-{1-[3,4-bis(methyloxy)phenyl]-1-methylethyl}-N-[(4-chloro-3-fluorophenyl)methyl]-1-(4-fluorophenyl)-1H-imidazole-2-carboxamide], the EC50 under setting [1] lay in the range of 100 to 1000 nM.

`COc1c(Cl)cc(C(C)(C)c2cnc(SCc3ccc(F)cc3Cl)n2-c2ccc(F)cc2)cc1Cl`: the EC50 under setting [1] was less than 100 nM.

For the compound `CC(C)(c1ccc(Cl)c(Cl)c1)c1cnc(SCc2ccc(F)cc2Cl)n1-c1ccc(F)c(C(N)=O)c1` [5-(2-{[(2-chloro-4-fluorophenyl)methyl]thio}-5-[1-(3,4-dichlorophenyl)-1-methylethyl]-1H-imidazol-1-yl)-2-fluorobenzamide], under setting [1], the EC50 was 100 to 1000 nM.

In the case of `CC(C)(c1ccc(F)c(F)c1)c1cnc(S(=O)(=O)Cc2ccc(F)cc2Cl)n1-c1ccc(F)cc1` [2-{[(2-chloro-4-fluorophenyl)methyl]sulfonyl}-5-[1-(3,4-difluorophenyl)-1-methylethyl]-1-(4-fluorophenyl)-1H-imidazole], under setting [1], the EC50 lay within 1000 to 10000 nM.

Regarding `CC(C)(c1ccc(Cl)c(Cl)c1)c1cnc(SCc2ccc(C(N)=O)c(Cl)c2)n1-c1ccc(F)cc1` [2-chloro-4-[({5-[1-(3,4-dichlorophenyl)-1-methylethyl]-1-(4-fluorophenyl)-1H-imidazol-2-yl}thio)methyl]benzamide], the EC50 under setting [1] lay within 100 to 1000 nM.

Turning to `COc1ccc(C(C)(C)c2cnc(C(=O)Nc3ccc(F)cc3Cl)n2-c2ccc(F)cc2)cc1OC` [5-{1-[3,4-bis(methyloxy)phenyl]-1-methylethyl}-N-(2-chloro-4-fluorophenyl)-1-(4-fluorophenyl)-1H-imidazole-2-carboxamide], under setting [1], the EC50 lay within 1000 to 10000 nM.

Turning to `CC(C)(C(=O)O)c1ccc(CSc2ncc(C(C)(C)c3ccc(Cl)c(Cl)c3)n2-c2ccc(F)cc2)c(F)c1` [2-{4-[({5-[1-(3,4-dichlorophenyl)-1-methylethyl]-1-(4-fluorophenyl)-1H-imidazol-2-yl}thio)methyl]-3-fluorophenyl}-2-methylpropanoic acid], the EC50 under setting [1] lay within 100 to 1000 nM.

For the compound `CCN(CC)CCOc1cc(-n2c(C(C)(C)c3ccc(Cl)c(Cl)c3)cnc2SCc2c(F)cc(C(=O)O)cc2Cl)ccc1F` [3-chloro-4-[({5-[1-(3,4-dichlorophenyl)-1-methylethyl]-1-(3-{[2-(diethylamino)ethyl]oxy}-4-fluorophenyl)-1H-imidazol-2-yl}thio)methyl]-5-fluorobenzoic acid], the EC50 under setting [1] fell in the range of 100 to 1000 nM.

With “2-chloro-5-{1-[2-{(2-chloro-4- fluorophenyl)methyl]thio}-1-(4-fluorophenyl)- 1H-imidazol-5-yl]-1- methylethyl}benzenesulfonamide”, under setting [1], the concentration giving a half-maximal response (EC50) lay in the range of 100 to 1000 nM.

In the case of `Fc1ccc(-n2c(Cc3ccc(F)c(Cl)c3)nnc2SCc2c(F)cccc2Cl)cc1` [Example 15], the half-maximal effective concentration (EC50) under setting [2] lay within 1000 to 10000 nM.

As for `CC(C)(c1ccc(Cl)c(Cl)c1)c1cnc(S(=O)(=O)Cc2c(F)cccc2Cl)n1-c1ccc(F)cc1Cl` [1-(2-chloro-4-fluorophenyl)-2-{[(2-chloro-6-fluorophenyl)methyl]sulfonyl}-5-[1-(3,4-dichlorophenyl)-1-methylethyl]-1H-imidazole], the EC50 under setting [1] was 1000 to 10000 nM.

Take `CC(C)(c1ccc(Cl)c(Cl)c1)c1cnc(COc2ccc(F)cc2Cl)n1-c1ccc(F)cc1` [2-{[(2-chloro-4-fluorophenyl)oxy]methyl}-5-[1-(3,4-dichlorophenyl)-1-methylethyl]-1-(4-fluorophenyl)-1H-imidazole]: the EC50 under setting [1] was 1000 to 10000 nM.

As for `CC(C)(c1ccc(Cl)c(Cl)c1)c1cnc(SCc2ccc(F)cc2Cl)n1-c1ccc(F)c(OCC(=O)O)c1` [{[5-(2-{[(2-chloro-4-fluorophenyl)methyl]thio}-5-[1-(3,4-dichlorophenyl)-1-methylethyl]-1H-imidazol-1-yl)-2-fluorophenyl]oxy}acetic acid], the EC50 under setting [1] fell in the range of 1000 to 10000 nM.

`CC(C)(c1ccc(Cl)c(Cl)c1)c1cnc(SCc2ccc(F)cc2Cl)n1-c1ccc(F)c(F)c1` [2-{[(2-chloro-4-fluorophenyl)methyl]thio}-5-[1-(3,4-dichlorophenyl)-1-methylethyl]-1-(3,4-difluorophenyl)-1H-imidazole]: under setting [1], the concentration for a half-maximal effect (EC50) is 100 to 1000 nM.

On to `CC(C)(c1ccc(F)c(F)c1)c1cnc(SCC2CCN(CC(O)CO)CC2)n1-c1ccc(F)cc1` (centres unmarked) [3-{4-[({5-[1-(3,4-difluorophenyl)-1-methylethyl]-1-(4-fluorophenyl)-1H-imidazol-2-yl}thio)methyl]piperidin-1-yl}propane-1,2-diol], for which the EC50 under setting [1] was 1000 to 10000 nM.

Regarding `CC(C)(Oc1cc(F)ccc1CSc1ncc(C(C)(C)c2ccc(Cl)c(Cl)c2)n1-c1ccc(F)cc1)C(=O)O` [2-({2-[({5-[1-(3,4-dichlorophenyl)-1-methylethyl]-1-(4-fluorophenyl)-1H-imidazol-2-yl}thio)methyl]-5-fluorophenyl}oxy)-2-methylpropanoic acid], the EC50 under setting [1] was 1000 to 10000 nM.

Take `Fc1ccc(-n2c(Cc3ccc(F)c(F)c3)cnc2SCc2ccc(F)cc2Cl)cc1` [2-{[(2-chloro-4-fluorophenyl)methyl]thio}-5-[(3,4-difluorophenyl)methyl]-1-(4-fluorophenyl)-1H-imidazole]: the EC50 under setting [1] was in the range of 100 to 1000 nM.

With `CC(C)(C)OC(=O)N1CCC(NCc2ncc(C(C)(C)c3ccc(Cl)c(Cl)c3)n2-c2ccc(F)cc2)CC1`, the EC50 under setting [1] is 1000 to 10000 nM.

Turning to `CC(C)(c1ccc(Cl)c(Cl)c1)c1cnc(-c2ccc(F)cc2)n1-c1ccc(F)cc1` [5-[1-(3,4-dichlorophenyl)-1-methylethyl]-1,2-bis(4-fluorophenyl)-1H-imidazole], under setting [1], the 50% effective concentration (EC50) lay within 100 to 1000 nM.

For the compound `COc1ccc(C(C)(C)c2cnc(C(=O)N3CCCC3)n2-c2ccc(F)cc2)cc1OC` [5-{1-[3,4-bis(methyloxy)phenyl]-1-methylethyl}-1-(4-fluorophenyl)-2-(pyrrolidin-1-ylcarbonyl)-1H-imidazole], under setting [1], the EC50 lay in the range of 1000 to 10000 nM.

Consider `CC(C)(O)COc1cc(C(C)(C)c2cnc(SCc3c(F)cccc3Cl)n2-c2ccc(F)cc2)ccc1Cl` [1-[(2-chloro-5-{1-[2-{[(2-chloro-6-fluorophenyl)methyl]thio}-1-(4-fluorophenyl)-1H-imidazol-5-yl]-1-methylethyl}phenyl)oxy]-2-methylpropan-2-ol], for which the EC50 under setting [1] was 100 to 1000 nM.

With `CC(C)(c1ccc(Cl)c(Cl)c1)c1cnc(SCc2ccc(C(N)=O)cc2Cl)n1-c1ccc(F)cc1` [3-chloro-4-[({5-[1-(3,4-dichlorophenyl)-1-methylethyl]-1-(4-fluorophenyl)-1H-imidazol-2-yl}thio)methyl]benzamide], the EC50 under setting [1] was 100 to 1000 nM.

As for `CC(C)(c1ccc(Cl)c(Cl)c1)c1cnc(COc2c(F)cccc2Cl)n1-c1ccc(F)cc1` [2-{[(2-chloro-6-fluorophenyl)oxy]methyl}-5-[1-(3,4-dichlorophenyl)-1-methylethyl]-1-(4-fluorophenyl)-1H-imidazole], the EC50 under setting [1] lay in the range of 100 to 1000 nM.

`Fc1ccc(-n2c(Cc3ccc(Cl)c(Cl)c3)nnc2SCc2ccc(F)cc2C(F)(F)F)cc1` [Example 33]: the EC50 under setting [2] was 1000 to 10000 nM.

Consider `CC(C)(c1ccc(Cl)c(Cl)c1)c1cnc(SCc2ccc(Cl)c(C(N)=O)c2)n1-c1ccc(F)cc1` [2-chloro-5-[({5-[1-(3,4-dichlorophenyl)-1-methylethyl]-1-(4-fluorophenyl)-1H-imidazol-2-yl}thio)methyl]benzamide], for which, under setting [1], the EC50 was less than 100 nM.

As to `CC(C)(c1ccc(Cl)c(Cl)c1)c1cnc(S(=O)(=O)Cc2c(F)cccc2Cl)n1-c1ccc(F)cc1` [2-{[(2-chloro-6-fluorophenyl)methyl]sulfonyl}-5-[1-(3,4-dichlorophenyl)-1-methylethyl]-1-(4-fluorophenyl)-1H-imidazole], under setting [1], the EC50 was in the range of 100 to 1000 nM.

`CC(C)(c1ccc(Cl)c(Cl)c1)c1cnc(SCc2c(Cl)cccc2Cl)n1-c1ccc(F)cc1` [5-[1-(3,4-dichlorophenyl)-1-methylethyl]-2-{[(2,6-dichlorophenyl)methyl]thio}-1-(4-fluorophenyl)-1H-imidazole]: under setting [1], the EC50 was 100 to 1000 nM.

Consider `CS(=O)(=O)c1ccc(Cc2nnc(SCc3ccc(F)cc3Cl)n2-c2ccc(F)cc2)cc1` [Example 44], for which the EC50 under setting [2] was 1000 to 10000 nM.

For `COc1cc(C(C)(C)c2cnc(SCc3ccc(S(=O)(=O)NC(=O)NCCC(=O)O)cc3Cl)n2-c2ccc(F)cc2)ccc1Cl` [N-[({[3-chloro-4-({[5-{1-[4-chloro-3-(methyloxy)phenyl]-1-methylethyl}-1-(4-fluorophenyl)-1H-imidazol-2-yl]thio}methyl)phenyl]sulfonyl}amino)carbonyl]-beta-alanine], under setting [1], the EC50 fell in the range of 100 to 1000 nM.

Consider `CC(C)(c1ccc(Cl)c(Cl)c1)c1cnc(SCc2ccc(-c3nnn[nH]3)c(F)c2)n1-c1ccc(F)cc1` [5-{4-[({5-[1-(3,4-dichlorophenyl)-1-methylethyl]-1-(4-fluorophenyl)-1H-imidazol-2-yl}thio)methyl]-2-fluorophenyl}-1H-tetrazole], for which the EC50 under setting [1] was in the range of 100 to 1000 nM.

Regarding `CC(C)(c1ccc(Cl)cc1)c1cnc(SCc2c(F)cccc2Cl)n1-c1ccc(F)cc1` [2-{[(2-chloro-6-fluorophenyl)methyl]thio}-5-[1-(4-chlorophenyl)-1-methylethyl]-1-(4-fluorophenyl)-1H-imidazole], the EC50 under setting [1] lay in the range of 100 to 1000 nM.
